{"source": "patent US5721356A", "about": "“Orally active adenosine kinase inhibitors” (Gensia, Inc., priority 1995, dated 1998)", "key": {"rat cardiomyocytes": {"system": "rat cardiomyocytes", "conditions": "cited from earlier work"}, "[1]": {"system": "isolated guinea pig hearts", "conditions": "cited from earlier work"}, "[2]": {"system": "rat and guinea pig brain slices", "conditions": "cited from earlier work"}, "anesthetized rats": {"system": "anesthetized rats", "conditions": "cited from earlier work"}, "mice [3]": {"system": "mice", "conditions": "interpreted as skeletal muscle relaxation; cited from earlier work"}, "mice [4]": {"system": "mice", "conditions": "cited from earlier work"}, "ischemic cerebral injury": {"system": "ischemic cerebral injury", "conditions": "Phillis et al.; cited from earlier work"}, "isolated rat hearts": {"system": "isolated rat hearts", "conditions": "perfused with 5-iodotubercidin alone, cited from earlier work"}, "dog hearts": {"system": "dog hearts", "conditions": "cited from earlier work"}, "[5]": {"system": "carrageenan-induced paw swelling in rats", "assay": "Anti-inflammatory activity, carrageenan paw swelling", "type": "in vivo, rat", "conditions": "po, 10 mg/kg, paw swelling 3 hours after carrageenan, vs vehicle", "experimental": "Carrageenan (Type λ) was suspended in sterile PBS at 1% (w/v), autoclaved for 30 minutes, and stored at room temperature. Rats were pretreated with vehicle or AK inhibitor (10 mg/kg) by oral gavage or i.p. administration and the volume of the left hind paw was measured using a water displacement plethysmometer (Stoelting Co., Wood Dale, Ill.). One hour after oral treatment or 30 minutes after i.p. treatment, the rats were briefly anesthetized, and 0.1 ml of the carrageenan solution was injected subcutaneously into the planar surface of the left hind paw. The ensuing paw swelling was measured by plethysmometry after 3 hours. The paw volume in millileters was subtracted from the pre-injection paw volume. Data are presented as the percent inhibition of paw swelling in AK inhibitor treated animals, compared to vehicle treated control animals."}, "male SA rats [6]": {"system": "male SA rats", "assay": "Analgesic activity, hot plate model", "type": "in vivo", "conditions": "Rattus norvegicus, po", "from_the_text": "(§1) Ther., 250:3, 915-922 (1989). See also, Life Sciences 51:171-76 (1992). These models measure pain avoidance and tolerance in response to a regulated stimulus, and compare the response of animals before and after they are given test compound."}, "male SA rats [7]": {"system": "male SA rats", "assay": "Anticonvulsant activity, maximal electroshock (MES) model, suppression of hind limb tonic extension", "type": "in vivo", "conditions": "Rattus norvegicus, 1 h, one hour before seizure testing"}, "[8]": {"target": "T1, partially purified pig heart adenosine kinase (Sus scrofa, UniProt A0A5G2R0F5)", "T1 construct": "partially purified pig heart adenosine kinase; from tissue; host or cells: pig heart", "T1 sequence (A0A5G2R0F5 1-362)": "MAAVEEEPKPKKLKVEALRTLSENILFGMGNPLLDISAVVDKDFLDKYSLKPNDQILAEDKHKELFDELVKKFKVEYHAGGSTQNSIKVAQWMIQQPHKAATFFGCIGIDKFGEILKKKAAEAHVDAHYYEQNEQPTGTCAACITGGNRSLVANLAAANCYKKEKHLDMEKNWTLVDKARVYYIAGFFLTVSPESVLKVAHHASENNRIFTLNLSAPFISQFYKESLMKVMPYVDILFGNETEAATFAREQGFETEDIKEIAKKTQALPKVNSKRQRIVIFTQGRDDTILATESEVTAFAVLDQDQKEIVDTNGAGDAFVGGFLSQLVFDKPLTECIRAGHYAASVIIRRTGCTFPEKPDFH", "assay": "Adenosine kinase (AK) inhibition", "type": "biochemical", "experimental": "Adenosine kinase activity was measured essentially as described by Yamada et al. Biochim. Biophys. Acta 660, 36-43 […] with a few minor modifications. Assay mixtures contained 50 mM TRIS-maleate buffer, pH 7.0, 0.1% BSA, 1 mM ATP 1 mM MgCl2, 0.5 μM [U-^14 C]adenosine (400-600 mCi/mmol) and varying duplicate concentrations of inhibitor. The reactions were initiated by addition of approximately 0.1 μU partially purified pig heart adenosine kinase, where one unit is defined as that amount of enzyme required to phosphorylate 1 μmol adenosine per minute. The reactions were incubated for 20 minutes at 37° C. The assay was quenched upon spotting 30 μL aliquots onto 2 cm^2 pieces of Whatman DE81 anion exchange paper. The paper squares were washed for 3 minutes in 6 L distilled/deionized water to remove the unreacted adenosine. […] The amount of ^14 C-AMP was quantified by scintillation counting."}, "male SA rats [9]": {"system": "male SA rats", "assay": "Analgesic activity, tail flick model", "type": "in vivo", "conditions": "Rattus norvegicus, po", "from_the_text": "as §1"}, "[10]": {"assay": "Oral bioavailability in dogs (oral vs intravenous AUC)", "type": "in vivo, dog (female beagles)", "conditions": "dog, plasma, 10 mg/kg, read-out: % Oral Availability", "experimental": "Oral bioavailability was determined by comparing the dose corrected areas under the plasma-concentration time curve (AUC) to infinity for the each tested compound, given orally and intravenously in dogs. […] One dog received this solution at an infusion rate of 0.1 mL/min for 20 minutes. The other dog received a 0.2 mL/in infusion for 10 minutes. […] The plasma was separated within 10 minutes of blood collection and was stored frozen. The plasma concentration of compound was then determined for these IV infusions. […] The plasma concentration of compound was determined for this oral administration. The samples were assayed for intact adenosine kinase inhibitor by high performance liquid chromatography (HPLC). An internal standard was added to each test sample and standard sample. Each was then extracted with 10 volumes of 1% v/v dimethylsulfoxide in acetonitrile. […] The dried residue was reconstituted in mobile phase and the contents were analyzed for the adenosine kinase inhibitor (AKI) on HPLC. […] Pharmacokinetic parameters were calculated from the plasma concentration vs. time data, using standard non-compartmental methods. […] et al., Pharmacokinetics., 2[…]. (1983)."}, "[11]": {"conditions": "po, fasted, read-out: Anticonvulsant ED50 (MES), po"}}, "note": "Read-outs that look alike come from different tables or passages of the source.", "data": [{"smiles": "OC[C@H]1O[C@@H](n2cnc3c2NC=NC[C@H]3O)C[C@@H]1O", "note": "[2'-deoxycoformycin]", "values": [{"measurement": "effect on adenosine release", "setting": "rat cardiomyocytes; inhibition of adenosine deaminase alone", "value": "no effect on adenosine release from the cells"}]}, {"smiles": "NC[C@H]1O[C@@H](n2cnc3c(N)ncnc32)[C@H](O)[C@@H]1O", "note": "[5'-amino-5'-deoxyadenosine]", "values": [{"measurement": "increase in adenosine release", "setting": "rat cardiomyocytes; inhibition of ADA together with adenosine kinase", "value": 6, "unit": "fold"}, {"measurement": "adenosine release effects without ADA inhibition", "setting": "[1]; absence of ADA inhibition", "value": "not apparent in the absence of ADA inhibition"}, {"measurement": "increase of adenosine release", "setting": "[1]; perfusion medium, in the presence of EHNA", "value": 15, "unit": "fold"}]}, {"smiles": "C[C@H]1O[C@@H](n2cc(I)c3c(N)ncnc32)[C@H](O)[C@@H]1O", "note": "[5'-deoxy-5-iodotubercidin]", "values": [{"measurement": "adenosine uptake", "setting": "[2]", "value": "adenosine uptake was reportedly inhibited"}, {"measurement": "blood pressure and heart rate", "setting": "anesthetized rats", "value": "decrease blood pressure and heart rate in anesthetized rats"}, {"measurement": "flaccidity and spontaneous locomotor activity", "setting": "mice [3]", "value": "pronounced general flaccidity and much-reduced spontaneous locomotor activity in mice"}, {"measurement": "hypothermia", "setting": "mice [4]", "value": "hypothermia in mice"}]}, {"smiles": "Nc1ncnc2c1c(I)cn2[C@@H]1O[C@H](CO)[C@@H](O)[C@H]1O", "note": "[5-iodotubercidin]", "values": [{"measurement": "protection against ischemic cerebral injury", "setting": "ischemic cerebral injury", "value": "does not protect against ischemic cerebral injury"}, {"measurement": "adenosine uptake", "setting": "[2]", "value": "adenosine uptake was reportedly inhibited"}, {"measurement": "blood pressure and heart rate", "setting": "anesthetized rats", "value": "decrease blood pressure and heart rate in anesthetized rats"}, {"measurement": "perfusate adenosine concentration", "setting": "isolated rat hearts; hypoxic, anoxic or ischemic conditions", "value": "no increase in perfusate adenosine concentration"}, {"measurement": "perfusate adenosine concentration", "setting": "isolated rat hearts; normoxic conditions", "value": "no increase in perfusate adenosine concentration"}, {"measurement": "flaccidity and spontaneous locomotor activity", "setting": "mice [3]", "value": "pronounced general flaccidity and much-reduced spontaneous locomotor activity in mice"}, {"measurement": "effects in ischemia and reperfusion model", "setting": "dog hearts", "value": "inconsistent effects"}, {"measurement": "hypothermia", "setting": "mice [4]", "value": "hypothermia in mice"}]}, {"smiles": "C[C@H]1O[C@@H](n2cc(-c3ccccc3)c3c(Nc4ccc(F)cc4)ncnc32)[C@H](O)[C@@H]1O", "note": "[#1, 4-N-(4-fluorophenyl)amino-5-phenyl-7-(5-deoxy-1-β-D-ribofuranosyl)pyrrolo(2,3-d)pyrimidine]", "values": [{"measurement": "Carrageenan Paw (% inh)", "setting": "[5]", "value": 0.2, "unit": "%"}, {"measurement": "ED50", "setting": "male SA rats [6]", "value": 16.9, "unit": "mg/kg"}, {"measurement": "ED50", "setting": "male SA rats [7]; ip, >5 or <5 = fewer or more than 50% inhibited in initial screen at 5 mg/kg ip, read-out: Anticonvulsant ED50 (MES), ip", "value": 1.9, "unit": "mg/kg"}, {"measurement": "ED50", "setting": "male SA rats [7]; [11]", "value": 5.1, "unit": "mg/kg"}, {"measurement": "IC50", "setting": "[8]", "value": 11, "unit": "nM"}, {"measurement": "ED50", "setting": "male SA rats [9]", "value": "< 10", "unit": "mg/kg"}]}, {"smiles": "C[C@H]1O[C@@H](n2cc(-c3ccccc3)c3c(Nc4ccc(C#N)cc4)ncnc32)[C@H](O)[C@@H]1O", "note": "[#21, 4-N-(4-cyanophenyl)amino-5-phenyl-7-(5-deoxy-1-β-D-ribofuranosyl)pyrrolo[2,3-d]pyrimidine]", "values": [{"measurement": "bioavailability", "setting": "[10]", "value": 23, "unit": "%"}, {"measurement": "ED50", "setting": "male SA rats [7]; [11]", "value": "> 20", "unit": "mg/kg"}, {"measurement": "IC50", "setting": "[8]", "value": 14, "unit": "nM"}]}]}
